Structures can show the parent of a compound that is named as a salt. Where two headings read alike, the source gives them in different places.
Key:
[1] = tested on: 5-lipoxygenase; assay: Inhibition of antigen-induced, late phase inflammatory cell infiltration in guinea pigs; format: in vivo; details: 60 minutes before antigen challenge, lung lavage four hours after challenge
Text: Inhibition of Antigen-Induced, Late Phase Inflammatory Cell Infiltration in Guinea Pigs
This model is used to measure the ability of a drug to inhibit 5-lipoxygenase in vivo. In addition to SRS-A, a chemotactic substance LTB₄ is also released by cells in the sensitized guinea pig lung upon stimulation by antigen. As a result there is a measurable influx of cells into the lung. Therefore, an inhibitor of 5-lipoxygenase could reduce the formation of LTB₄ and thereby reduce the cell influx into the lung.
Male outbred Hartley strain albino guinea pigs (250-300 grams) were sensitized to ovalbumin as in the procedure for inhibition of antigen-induced, SRS-A mediated bronchioconstriction in conscious guinea pigs.
Sensitized guinea pigs were fasted and pretreated with pyrilamine and indomethacin as in bronchioconstriction testing procedure. Test compounds, suspended in 1% acacia, were administered 60 minutes before antigen challenge. […] Whole lung lavage was performed with three 5 mL aliquots of normal saline buffered with sodium bicarbonate.
Total cell counts were performed on a Coulter Counter, and differential cell counts were performed. Compounds were evaluated for their ability to alter the antigen-induced total cell influx and, more specifically, neutrophil (PMN) influx.

[2] = target: T1, 5-lipoxygenase (Homo sapiens, UniProt P09917); assay: Inhibition of 5-lipoxygenase (5-HETE biosynthesis) in human polymorphonuclear leukocytes; format: cell-based; details: human PMN's, 5-HETE band vs control; test concentration 1 microM; read-out: Inhibition of 5-LO % at 1 M
T1 construct: Human PMN's (5 x 10⁶ cells/0.5 mL) in pH 7.2 phosphate buffer; endogenous in cells; host or cells: human polymorphonuclear leukocytes (PMN)
T1 sequence (P09917 1-674): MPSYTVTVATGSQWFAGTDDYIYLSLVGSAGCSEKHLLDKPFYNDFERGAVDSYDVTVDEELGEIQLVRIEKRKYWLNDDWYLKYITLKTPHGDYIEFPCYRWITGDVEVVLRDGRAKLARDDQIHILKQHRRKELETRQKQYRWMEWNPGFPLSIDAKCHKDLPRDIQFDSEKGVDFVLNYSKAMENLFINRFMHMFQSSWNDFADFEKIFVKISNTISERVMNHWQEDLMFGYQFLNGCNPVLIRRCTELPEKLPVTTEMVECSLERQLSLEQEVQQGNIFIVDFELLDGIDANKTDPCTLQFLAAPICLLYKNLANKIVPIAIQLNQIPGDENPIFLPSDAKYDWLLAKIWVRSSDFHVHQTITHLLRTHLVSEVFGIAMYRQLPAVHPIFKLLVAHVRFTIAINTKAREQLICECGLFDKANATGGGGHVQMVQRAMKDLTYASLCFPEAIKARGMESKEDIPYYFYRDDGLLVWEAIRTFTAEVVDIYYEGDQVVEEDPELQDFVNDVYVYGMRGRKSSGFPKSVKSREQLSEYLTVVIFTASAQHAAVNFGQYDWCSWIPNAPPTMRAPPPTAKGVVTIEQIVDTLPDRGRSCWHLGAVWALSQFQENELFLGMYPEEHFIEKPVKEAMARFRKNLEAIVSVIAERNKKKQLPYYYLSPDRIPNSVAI
Protocol: Inhibition of 5-Lipoxygenase in Human Polymorphonuclear Leukocytes (PMN's)
The inhibition of 5-lipoxygenase is measured by determining whether and to what extent test compounds inhibit the amount of 5-HETE biosynthesized by human PMN's. 5-HETE biosynthesis serves as a marker for arachidonic acid metabolism by 5-lipoxygenase.
Human PMN's (5 x 10⁶ cells/0.5 mL) in pH 7.2 phosphate buffer containing Ca²⁺ (0.6 mM) and Mg²⁺ (1.0 mM) were incubated with test compound for 15 minutes at 37°C with shaking. Calcium ionophore A23187 (0.25 mM, 0.01 mL) and [¹⁴C] arachidonic acid (0.10 microCi in 0.025 mL 0.01N NaOH) were added, and the mixture incubated another 2.5 minutes. The reaction was terminated by the addition of 0.025 mL of 1.0 N HCl. The mixture was then extracted with ethyl acetate-methylene chloride (2:3) supplemented with 12 microgram/mL cold arachidonic acid to reduce degradation of the metabolites. After concentrating the organic phase, the number of microlitres containing 5 x 10⁴ cpm was determined and that volume applied to a silica gel plate. The plate was developed in methylene-chloride-methanol-acetic acid-water (90:8:1:0.8), air dried, and counted on a Berthold linear TLC analyzer. The integrated area of the 5-HETE band was determined and compared with the control (no drug).
In cases where the IC₅₀ was determined, the result is shown in microM.

[3] = tested on: A23187-Induced LTB₄ Generation; assay: Ex vivo inhibition of A23187-induced LTB4 generation in squirrel monkey blood; design: species or system Squirrel Monkeys; details: Primates
Protocol: Ex Vivo Inhibition of A23187-Induced LTB₄ Generation in Squirrel Monkeys.
Incubation of squirrel monkey whole blood with calcium ionophore A23187 stimulates the production of LTB₄. This LTB₄ production can be inhibited by a lipoxygenase inhibitor in vitro by incubating the blood with the inhibitor prior to A23187 challenge. By dosing squirrel monkeys with a lipoxygenase inhibitor prior to withdrawal of a blood sample, one can determine the ability of the lipoxygenase inhibitor to be absorbed into the bloodstream by measuring the inhibition of A23187 induced LTB₄ production ex vivo.
Squirrel monkeys (400-650g) were fasted for 18 hours, anesthetized and dosed either orally or intraperitoneally with test compound. After the desired time period, blood was withdrawn from the femoral vein. The blood (0.5 mL) was heparinized, preincubated at 37°C for 5 minutes and stimulated with A23187 in DMSO to give a final concentration of 30 microM. The reaction was terminated with EGTA (final concentration 10 microM), and the blood centrifuged. Levels of LTB₄ in the plasma were then determined by radioimmunoassay.
The results shown in Table 4 illustrate the ability of a prodrug of type 2a or 2b to be absorbed after ip or po dosing compared to the parent compound 1a.

[4] = 1 h, 30 mg/kg ip, 60 min after dosing, vehicle per footnotes 2-4, read-out: Percent Inh. Monkey 2
[5] = 1 h, 30 mg/kg ip, 60 min after dosing, vehicle per footnotes 2-4, read-out: Percent Inh. Monkey 3
[6] = 1 h, 30 mg/kg ip, 60 min after dosing, vehicle per footnotes 2-4, read-out: Percent Inh. Monkey #1
[7] = 1 h, 30 mg/kg po, 60 min after dosing, vehicle per footnotes 2-4, read-out: Percent Inh. Monkey 2
[8] = 1 h, 30 mg/kg po, 60 min after dosing, vehicle per footnotes 2-4, read-out: Percent Inh. Monkey #1

| inhibition at 1 µM [2] [%] | SMILES | also measured |
| --- | --- | --- |
| 65 | Cc1cc(C=Cc2cccs2)cc(F)c1O [Compound 1k] | – |
| 59 | COc1cc(C=Cc2ccsc2)cc(F)c1O [Compound 1t] | – |
| 46 | Cc1cc(C=Cc2ccncc2)cc(C)c1O [Compound 1y] | – |
| 59 | CCc1cc(C=Cc2cccnc2)cc(CC)c1O [Compound 1aa] | – |
| 84 | Cc1cc(C=Cc2cccs2)cc(Cl)c1O [Compound 1l] | – |
| 70 | COc1cc(C=Cc2ccsc2)cc(C)c1O [Compound 1p] | – |
| 65 | COc1cc(C=Cc2cccs2)cc(F)c1O [Compound 1m] | – |
| 62 | Cc1ccc(C=Cc2cc(C)c(O)c(C)c2)s1 [Compound 1c] | – |
| 77 | COc1cc(C=Cc2ccsc2)cc(OC)c1O [Compound 1q] | – |
| 63 | COc1ccc(C=Cc2cc(F)c(O)c(OC)c2)cc1 [Compound 1az] | – |
| 71 | COc1ccc(C=Cc2cc(C(C)C)c(O)c(C(C)C)c2)cc1 [Compound 1av] | – |
| 75 | C=CCc1cc(C=Cc2ccsc2)cc(C)c1O [Compound 1v] | – |
| 77 | Cc1cc(C=Cc2ccc(Cl)s2)cc(C)c1O [Compound 1b] | – |
| 77 | Cc1cc(C=Cc2ccccn2)cc(C)c1O [Compound 1w] | – |
| 78 | COc1cc(C=Cc2cccs2)cc(OC)c1O [Compound 1n] | – |
| 34 | CC(C)c1cc(C=Cc2cccc(C(F)(F)F)c2)cc(C(C)C)c1O [Compound 1ay] | – |
| – | Cc1cc(C=Cc2cccs2)cc(C)c1OC(=O)CN [Compound 2b, 2,6-Dimethyl-4-[2-(2-thienyl)ethenyl]phenyl glycinate hydrochloride] | inhibition at 30 mg/kg ([3]; 1 h, 24 mg/kg instead of 30 mg/kg po, 60 min after dosing, dissolved in distilled water, read-out: Percent Inh. Monkey 3): 33%; inhibition at 30 mg/kg [3, 4]: 56%; inhibition at 30 mg/kg [3, 5]: 69%; inhibition at 30 mg/kg [3, 6]: 78%; inhibition at 30 mg/kg [3, 7]: 54%; inhibition at 30 mg/kg [3, 8]: 62% |
| 75 | Cc1cc(C=Cc2ccsc2)cc(Cl)c1O [Compound 1s] | – |
| – | Cc1cc(C=Cc2cccs2)cc(C)c1OC(=O)CCC(=O)O [Compound 2a, 2,6-Dimethyl-4-[2-(2-thienyl)ethenyl]phenyl succinate] | inhibition at 30 mg/kg [3, 4]: 83%; inhibition at 30 mg/kg [3, 5]: 89%; inhibition at 30 mg/kg [3, 6]: 62%; inhibition at 30 mg/kg [3, 7]: 71%; inhibition at 30 mg/kg ([3]; 1 h, 30 mg/kg po, 60 min after dosing, vehicle per footnotes 2-4, read-out: Percent Inh. Monkey 3): 66%; inhibition at 30 mg/kg [3, 8]: 50%; inhibition at 30 mg/kg ([3]; 2 h, 30 mg/kg po, 120 min after dosing, dissolved in dilute alkali, read-out: Percent Inh. Monkey 2): 100%; inhibition at 30 mg/kg ([3]; 2 h, 30 mg/kg po, 120 min after dosing, dissolved in dilute alkali, read-out: Percent Inh. Monkey 3): 61%; inhibition at 30 mg/kg ([3]; 2 h, 30 mg/kg po, 120 min after dosing, dissolved in dilute alkali, read-out: Percent Inh. Monkey #1): 41%; inhibition at 30 mg/kg ([3]; 4 h, 30 mg/kg po, 240 min after dosing, dissolved in dilute alkali, read-out: Percent Inh. Monkey 2): 65%; inhibition at 30 mg/kg ([3]; 4 h, 30 mg/kg po, 240 min after dosing, dissolved in dilute alkali, read-out: Percent Inh. Monkey 3): 100%; inhibition at 30 mg/kg ([3]; 4 h, 30 mg/kg po, 240 min after dosing, dissolved in dilute alkali, read-out: Percent Inh. Monkey #1): 43%; % Inh. PMN ([1]; 10 mg/kg po): 93%; % Inh. Total Cells ([1]; 10 mg/kg po): 89% |
| 32 | CC(C)c1cc(C=Cc2ccc(F)cc2)cc(C(C)C)c1O [Compound 1ax] | – |
| 70 | CCc1cc(C=Cc2cccs2)cc(CC)c1O [Compound 1i, 2,6-Diethyl-4-[2-(2-thienyl)ethenyl]phenol] | % Inh. PMN ([1]; 30 mg/kg ip): 74%; % Inh. Total Cells ([1]; 30 mg/kg ip): 51%; % Inh. PMN ([1]; 30 mg/kg po): 51%; % Inh. Total Cells ([1]; 30 mg/kg po): 65% |
| 66 | CCc1cc(C=Cc2ccsc2)cc(CC)c1O [Compound 1u] | – |
| 82 | CCc1cc(C=Cc2ccsc2)cc(OC)c1O [Compound 1r] | – |
| 61 | C=CCc1cc(C=Cc2cccnc2)cc(C)c1O [Compound 1ac] | – |
| 76 | COc1cc(C=Cc2ccc(Cl)s2)cc(C)c1O [Compound 1g] | – |
| 57 | COc1ccc(C=Cc2cc(C(C)C)c(O)c(C(C)C)c2)cc1OC [Compound 1aw] | – |

| SMILES | inhibition at 1 µM [2] [%] | also measured |
| --- | --- | --- |
| C=CCc1cc(C=Cc2cccs2)cc(C)c1O [Compound 1h] | 70 | % Inh. PMN ([1]; 10 mg/kg ip): 46%; % Inh. Total Cells ([1]; 10 mg/kg ip): 55% |
| CC(C)c1cc(C=Cc2cccs2)cc(C(C)C)c1O [Compound 1j] | 78 | – |
| COc1cc(C=Cc2cccnc2)cc(C)c1O [Compound 1z] | 52 | – |
